Data: US6355799B1, “Substituted benzene compounds, process for their preparation, and herbicidal and defoliant compositions containing them” (ISK Americas Incorporated, priority 1997, dated 2002)

Experiments:
Format in all cases: in vivo
[1] = test system: large crabgrass (Digitaria sanguinalis, DIGSA); experiment: Pre-emerge test, greenhouse herbicide activity screening; details: pre-emerge, rated 14 days after application, 0 = no damage, 100 = complete death
Procedure, shortened: (§1)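 Herbicidal damage is scored 0 (none) to 100 (complete plant death) two weeks after a simulated field spray. Rates span 15–1000 g ai/ha, delivered in acetone at 187 l/ha. For post-emergence treatments, plants have 2–3 leaves and the spray carries 0.25% v/v non-ionic surfactant.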

[2] = test system: green foxtail (Setaria viridis, SETVI); experiment: as above; details: pre-emerge, rated 14 days after application, 0 = no damage, 100 = complete death
Procedure, shortened: as §1

[3] = test system: johnsongrass (Sorghum halepense, SORHA); experiment: as above; details: pre-emerge, rated 14 days after application, 0 = no damage, 100 = complete death
Procedure, shortened: as §1

[4] = test system: velvetleaf (Abutilon theophrasti, ABUTH); experiment: as above; details: pre-emerge, rated 14 days after application, 0 = no damage, 100 = complete death
Procedure, shortened: as §1

[5] = test system: barnyardgrass (Echinochloa crus-galli, ECHCG); experiment: as above; details: pre-emerge, rated 14 days after application, 0 = no damage, 100 = complete death
Procedure, shortened: as §1

[6] = test system: ivyleaf morningglory (Ipomoea hederacea, IPOHE); experiment: as above; details: pre-emerge, rated 14 days after application, 0 = no damage, 100 = complete death
Procedure, shortened: as §1

[7] = test system: sicklepod (Cassia obtusifolia, CASOB); experiment: as above; details: pre-emerge, rated 14 days after application, 0 = no damage, 100 = complete death
Procedure, shortened: as §1

[8] = test system: lambsquarters (Chenopodium album, CHEAL); experiment: as above; details: pre-emerge, rated 14 days after application, 0 = no damage, 100 = complete death
Procedure, shortened: as §1

[9] = test system: field corn (Zea mays L., var. Dekalb 535, CORN); experiment: Post-emerge test, crop safety; details: phytotoxicity rating 0-100 (0 no damage, 100 complete death), 14 days after application
Procedure, shortened: as §1

[10] = test system: upland rice (Oryza sp., var. Tebonnet, RICE); experiment: Post-emerge test, crop safety; details: phytotoxicity rating 0-100 (0 no damage, 100 complete death), 14 days after application
Procedure, shortened: as §1

[11] = test system: large crabgrass (Digitaria sanguinalis, DIGSA); experiment: Post-emerge test, greenhouse herbicide activity screening; details: phytotoxicity rating 0-100 (0 no damage, 100 complete death), 14 days after application
Procedure, shortened: (§2)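 Plants grown in 10 cm pots of sandy loam mix received acetone-dissolved compounds through a moving flat-fan nozzle. Doses ranged from 15 to 1000 g ai/ha. Pre-emerge pots were seeded one day earlier, post-emerge pots 8–21 days earlier. Fourteen days on, each pot was graded 0–100 for damage.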

[12] = test system: green foxtail (Setaria viridis, SETVI); experiment: as above; details: phytotoxicity rating 0-100 (0 no damage, 100 complete death), 14 days after application
Procedure, shortened: as §2

[13] = test system: johnsongrass (Sorghum halepense, SORHA); experiment: as above; details: phytotoxicity rating 0-100 (0 no damage, 100 complete death), 14 days after application
Procedure, shortened: as §2

[14] = test system: velvetleaf (Abutilon theophrasti, ABUTH); experiment: as above; details: phytotoxicity rating 0-100 (0 no damage, 100 complete death), 14 days after application
Procedure, shortened: as §2

[15] = test system: barnyardgrass (Echinochloa crus-galli, ECHCG); experiment: as above; details: phytotoxicity rating 0-100 (0 no damage, 100 complete death), 14 days after application
Procedure, shortened: as §2

[16] = test system: ivyleaf morningglory (Ipomoea hederacea, IPOHE); experiment: as above; details: phytotoxicity rating 0-100 (0 no damage, 100 complete death), 14 days after application
Procedure, shortened: as §2

[17] = test system: redroot pigweed (Amaranthus retroflexus, AMARE); experiment: as above; details: phytotoxicity rating 0-100 (0 no damage, 100 complete death), 14 days after application
Procedure, shortened: as §2

[18] = test system: lambsquarters (Chenopodium album, CHEAL); experiment: as above; details: phytotoxicity rating 0-100 (0 no damage, 100 complete death), 14 days after application
Procedure, shortened: as §2

[19] = test system: field corn (Zea mays L., var. Dekalb 535, CORN); experiment: Pre-emerge test, crop safety; details: pre-emerge, rated 14 days after application, 0 = no damage, 100 = complete death
Procedure, shortened: (§3)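 Compounds in acetone were track-sprayed at 187 l/ha, 15–1000 g ai/ha, onto sandy loam pots. Pre-emerge seeds were sown one day before spraying, with surface watering afterwards. Post-emerge plants were at the 2–3 leaf stage and sprayed with 0.25% v/v non-ionic surfactant. Injury was rated 0–100 at 14 days.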

[20] = test system: upland rice (Oryza sp., var. Tebonnet, RICE); experiment: Pre-emerge test, crop safety; details: pre-emerge, rated 14 days after application, 0 = no damage, 100 = complete death
Procedure, shortened: as §3

[21] = test system: redroot pigweed (Amaranthus retroflexus, AMARE); experiment: Pre-emerge test, greenhouse herbicide activity screening; details: pre-emerge, rated 14 days after application, 0 = no damage, 100 = complete death
Procedure, shortened: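 Rating: 0–100 visual injury, 14 DAA. Application: acetone, 187 l/ha, 15–1000 g ai/ha, flat-fan track sprayer with nozzle 40–45 cm above soil or canopy. Post-emerge runs used 0.25% v/v surfactant on 2–3 leaf plants.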

SMILES: Cn1c(C(F)(F)F)cc(=O)n(-c2c(F)cc(Cl)c(OCC#N)c2NC(=O)C(F)(F)F)c1=O [2-11]
- Pre-emerge Herbicidal Activity DIGSA (phytotoxicity rating, scale 0-100) ([1]; 63 g ai/ha): 0
- Pre-emerge Herbicidal Activity DIGSA (phytotoxicity rating, scale 0-100) ([1]; 250 g ai/ha): 60
- Pre-emerge Herbicidal Activity SETVI (phytotoxicity rating, scale 0-100) ([2]; 63 g ai/ha): 0
- Pre-emerge Herbicidal Activity SETVI (phytotoxicity rating, scale 0-100) ([2]; 250 g ai/ha): 100
- Pre-emerge Herbicidal Activity SORHA (phytotoxicity rating, scale 0-100) ([3]; 63 g ai/ha): 0
- Pre-emerge Herbicidal Activity SORHA (phytotoxicity rating, scale 0-100) ([3]; 250 g ai/ha): 50
- Pre-emerge Herbicidal Activity ABUTH (phytotoxicity rating, scale 0-100) ([4]; 63 g ai/ha): 90
- Pre-emerge Herbicidal Activity ABUTH (phytotoxicity rating, scale 0-100) ([4]; 250 g ai/ha): 100
- Pre-emerge Herbicidal Activity ECHCG (phytotoxicity rating, scale 0-100) ([5]; 63 g ai/ha): 0
- Pre-emerge Herbicidal Activity ECHCG (phytotoxicity rating, scale 0-100) ([5]; 250 g ai/ha): 40
- Pre-emerge Herbicidal Activity IPOHE (phytotoxicity rating, scale 0-100) ([6]; 63 g ai/ha): 70
- Pre-emerge Herbicidal Activity IPOHE (phytotoxicity rating, scale 0-100) ([6]; 250 g ai/ha): 100
- Pre-emerge Herbicidal Activity CASOB (phytotoxicity rating, scale 0-100) ([7]; 63 g ai/ha): 0
- Pre-emerge Herbicidal Activity CASOB (phytotoxicity rating, scale 0-100) ([7]; 250 g ai/ha): 60
- Pre-emerge Herbicidal Activity CHEAL (phytotoxicity rating, scale 0-100) ([8]; 63 g ai/ha): 100
- Pre-emerge Herbicidal Activity CHEAL (phytotoxicity rating, scale 0-100) ([8]; 250 g ai/ha): 100
- Post-emerge Herbicidal Activity CORN (crop damage) ([9]; 63 g ai/ha): 5
- Post-emerge Herbicidal Activity CORN (crop damage) ([9]; 250 g ai/ha): 5
- Post-emerge Herbicidal Activity RICE (crop damage) ([10]; 63 g ai/ha): 0
- Post-emerge Herbicidal Activity RICE (crop damage) ([10]; 250 g ai/ha): 0
- Post-emerge Herbicidal Activity DIGSA ([11]; 63 g ai/ha): 0
- Post-emerge Herbicidal Activity DIGSA ([11]; 250 g ai/ha): 0
- Post-emerge Herbicidal Activity SETVI ([12]; 63 g ai/ha): 0
- Post-emerge Herbicidal Activity SETVI ([12]; 250 g ai/ha): 20
- Post-emerge Herbicidal Activity SORHA ([13]; 63 g ai/ha): 0
- Post-emerge Herbicidal Activity SORHA ([13]; 250 g ai/ha): 0
- Post-emerge Herbicidal Activity ABUTH ([14]; 63 g ai/ha): 80
- Post-emerge Herbicidal Activity ABUTH ([14]; 250 g ai/ha): 100
- Post-emerge Herbicidal Activity ECHCG ([15]; 63 g ai/ha): 0
- Post-emerge Herbicidal Activity ECHCG ([15]; 250 g ai/ha): 0
- Post-emerge Herbicidal Activity IPOHE ([16]; 63 g ai/ha): 50
- Post-emerge Herbicidal Activity IPOHE ([16]; 250 g ai/ha): 60
- Post-emerge Herbicidal Activity AMARE ([17]; 63 g ai/ha): 0
- Post-emerge Herbicidal Activity AMARE ([17]; 250 g ai/ha): 30
- Post-emerge Herbicidal Activity CHEAL ([18]; 63 g ai/ha): 40
- Post-emerge Herbicidal Activity CHEAL ([18]; 250 g ai/ha): 65
- Pre-emerge crop damage CORN (phytotoxicity rating, scale 0-100) ([19]; 63 g ai/ha): 0
- Pre-emerge crop damage CORN (phytotoxicity rating, scale 0-100) ([19]; 250 g ai/ha): 10
- Pre-emerge crop damage RICE (phytotoxicity rating, scale 0-100) ([20]; 63 g ai/ha): 10
- Pre-emerge crop damage RICE (phytotoxicity rating, scale 0-100) ([20]; 250 g ai/ha): 50
- Pre-emerge Herbicidal Activity AMARE (phytotoxicity rating, scale 0-100) ([21]; 63 g ai/ha): 30
- Pre-emerge Herbicidal Activity AMARE (phytotoxicity rating, scale 0-100) ([21]; 250 g ai/ha): 100
